# What was measured:
# [1] = molecular target: T1, CFTR (Homo sapiens, UniProt P13569, DEL508-508); test: TECC24 AUC fold over DMSO @10 μM, CFTR-mediated transepithelial chloride transport in CF-HBE cells; format: cell-based; conditions: test agent AUC divided by DMSO vehicle AUC, primary CF-HBE cells, ΔF508 homozygous donor, 48 hours incubation
# T1 construct: Primary human bronchial epithelial cells from a ΔF508 homozygous CF donor; host or cells: primary human bronchial epithelial cells (CF-HBE), ΔF508 homozygous donor
# T1 sequence (P13569 with tags, fused parts or gaps DEL508-508): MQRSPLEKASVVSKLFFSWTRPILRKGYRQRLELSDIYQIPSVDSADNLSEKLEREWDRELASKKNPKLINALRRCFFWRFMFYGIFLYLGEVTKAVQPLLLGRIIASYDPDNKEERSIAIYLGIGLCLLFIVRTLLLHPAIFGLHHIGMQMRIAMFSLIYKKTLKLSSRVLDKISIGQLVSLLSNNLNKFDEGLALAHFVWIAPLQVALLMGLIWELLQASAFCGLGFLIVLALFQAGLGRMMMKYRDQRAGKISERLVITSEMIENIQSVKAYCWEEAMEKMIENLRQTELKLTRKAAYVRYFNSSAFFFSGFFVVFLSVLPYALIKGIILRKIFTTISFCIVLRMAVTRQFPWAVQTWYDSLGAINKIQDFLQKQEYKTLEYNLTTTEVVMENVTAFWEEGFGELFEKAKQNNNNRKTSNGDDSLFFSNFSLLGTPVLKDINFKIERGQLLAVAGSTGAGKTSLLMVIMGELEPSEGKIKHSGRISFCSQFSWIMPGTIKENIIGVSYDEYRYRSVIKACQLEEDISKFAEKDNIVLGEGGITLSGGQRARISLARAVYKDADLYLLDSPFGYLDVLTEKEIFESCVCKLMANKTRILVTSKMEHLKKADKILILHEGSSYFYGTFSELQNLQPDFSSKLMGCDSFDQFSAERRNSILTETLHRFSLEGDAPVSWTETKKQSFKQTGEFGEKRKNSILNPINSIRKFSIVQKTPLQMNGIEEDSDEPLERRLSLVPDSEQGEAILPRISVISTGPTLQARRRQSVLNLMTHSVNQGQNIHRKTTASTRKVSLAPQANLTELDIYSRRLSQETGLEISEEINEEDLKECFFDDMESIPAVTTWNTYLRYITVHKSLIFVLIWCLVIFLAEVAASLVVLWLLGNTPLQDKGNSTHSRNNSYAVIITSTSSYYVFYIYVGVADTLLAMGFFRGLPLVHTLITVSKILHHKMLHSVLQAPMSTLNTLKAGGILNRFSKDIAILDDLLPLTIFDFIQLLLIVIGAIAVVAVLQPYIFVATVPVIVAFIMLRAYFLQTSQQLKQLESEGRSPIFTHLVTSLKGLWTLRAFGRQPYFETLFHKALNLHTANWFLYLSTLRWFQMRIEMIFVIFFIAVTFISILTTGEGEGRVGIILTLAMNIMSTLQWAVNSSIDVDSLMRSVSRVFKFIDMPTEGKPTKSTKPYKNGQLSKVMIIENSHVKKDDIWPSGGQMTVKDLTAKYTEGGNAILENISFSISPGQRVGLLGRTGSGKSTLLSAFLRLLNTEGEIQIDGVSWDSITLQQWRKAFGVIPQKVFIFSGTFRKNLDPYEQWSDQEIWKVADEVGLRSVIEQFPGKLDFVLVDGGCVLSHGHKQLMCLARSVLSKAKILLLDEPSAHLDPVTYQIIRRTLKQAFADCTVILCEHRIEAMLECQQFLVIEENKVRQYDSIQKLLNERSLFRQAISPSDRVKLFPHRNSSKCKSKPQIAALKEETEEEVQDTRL
# In short: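 ΔF508-homozygous primary bronchial epithelial cells incubated 48 h at 36.5° C with compound (10 μM) in IL-13-containing medium, then TECC24 current-clamp recording in pH 7.4 Hepes saline with benzamil 10 μM, forskolin 10 μM, then CFTR inhibitor-172 20 μM. Equivalent Cl− current AUC between forskolin and inhibitor, expressed as fold over DMSO.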
# [2] = molecular target: T2, NBD1 (Homo sapiens, UniProt P13569); test: Aggregation analysis using differential static light scattering (DSLS), thermal stability of NBD1 (ΔTagg); format: binding; conditions: ΔTagg versus DMSO control, NBD1 0.2 mg/ml
# T2 construct: Purified recombinant NBD1 was produced using previously described methods; made in house
# T2 sequence (P13569 423-646 limits assumed): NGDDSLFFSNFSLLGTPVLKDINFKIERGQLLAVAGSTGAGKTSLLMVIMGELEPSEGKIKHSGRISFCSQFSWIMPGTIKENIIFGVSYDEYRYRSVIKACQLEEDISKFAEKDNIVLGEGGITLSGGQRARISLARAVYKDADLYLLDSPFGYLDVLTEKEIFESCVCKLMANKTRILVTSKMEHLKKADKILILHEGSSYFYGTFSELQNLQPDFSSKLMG
# In short: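 Thermal aggregation of purified NBD1 was followed by static light scattering during a 1° C./min ramp to 70° C. Protein was at 0.2 mg/ml with 2 mM ATP at pH7.6. Each compound's Tagg was referenced to DMSO controls.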
Structure (SMILES),"TECC (AUC, 10 μM) [1]",DSLS 3D (100 μM ΔT) [2]
"C[C@@H](Cc1cccc([C@@]2(C)CCCC(C)(C)CS(=O)(=O)CCc3c(c(F)cc4[nH]ccc34)Oc3ccc(F)c(c3)-c3nc2nn3C)c1)C(=O)O (single isomer, unassigned) [Compound 7]",B (a value between 12-20 is marked “B”),C (a value greater than 10 °C and less than or equal to 25 °C is marked “C”)
"[2H]C([2H])([2H])C1(c2cccc(CC(C)C(=O)O)c2)COCC(C)(C)CS(=O)(=O)CCc2c(c(F)cc3[nH]ccc23)Oc2ccc(F)c(c2)-c2nc1nn2C (single isomer, unassigned) [Compound 8A, 3-[3-[22,28-difluoro-3,10,10-trimethyl-12,12-dioxo-6-(trideuteriomethyl)-8,24-dioxa-12lambda6-thia-3,4,19,30-tetrazapentacyclo[23.3.1.12,5.015,23.016,20]triaconta-1(29),2(30),4,15,17,20,22,25,27-nonaen-6-yl]phenyl]-2-methyl-propanoic acid]",B (a value between 12-20 is marked “B”),C (a value greater than 10 °C and less than or equal to 25 °C is marked “C”)
"[2H]C([2H])([2H])C1(c2cccc(CC(C)C(=O)O)c2)COCC(C)(C)CS(=O)(=O)CCc2c(c(F)cc3[nH]ccc23)Oc2ccc(F)c(c2)-c2nc1nn2C (single isomer, unassigned) [Compound 8B, 3-[3-[22,28-difluoro-3,10,10-trimethyl-12,12-dioxo-6-(trideuteriomethyl)-8,24-dioxa-12lambda6-thia-3,4,19,30-tetrazapentacyclo[23.3.1.12,5.015,23.016,20]triaconta-1(29),2(30),4,15,17,20,22,25,27-nonaen-6-yl]phenyl]-2-methyl-propanoic Acid]",A (a TECC value less than 12 is marked “A”),A (an ΔTagg value less than or equal to 5 °C is marked “A”)
"[2H]C([2H])([2H])C1(c2cccc(CC(C)C(=O)O)c2)CCCC(C([2H])([2H])[2H])(C([2H])([2H])[2H])CS(=O)(=O)CCc2c(c(F)cc3[nH]ccc23)Oc2ccc(F)c(c2)-c2nc1nn2C (single isomer, unassigned) [Compound 9A, 3-[3-[22,28-difluoro-3-methyl-12,12-dioxo-6,10,10-tris(trideuteriomethyl)-24-oxa-12lambda6-thia-3,4,19,30-tetrazapentacyclo[23.3.1.12,5.015,23.016,20]triaconta-1(29),2(30),4,15,17,20,22,25,27-nonaen-6-yl]phenyl]-2-methyl-propanoic Acid]",A (a TECC value less than 12 is marked “A”),C (a value greater than 10 °C and less than or equal to 25 °C is marked “C”)
"[2H]C([2H])([2H])C1(c2cccc(CC(C)C(=O)O)c2)CCCC(C([2H])([2H])[2H])(C([2H])([2H])[2H])CS(=O)(=O)CCc2c(c(F)cc3[nH]ccc23)Oc2ccc(F)c(c2)-c2nc1nn2C (single isomer, unassigned) [Compound 9B, 3-[3-[22,28-difluoro-3-methyl-12,12-dioxo-6,10,10-tris(trideuteriomethyl)-24-oxa-12lambda6-thia-3,4,19,30-tetrazapentacyclo[23.3.1.12,5.015,23.016,20]triaconta-1(29),2(30),4,15,17,20,22,25,27-nonaen-6-yl]phenyl]-2-methyl-propanoic Acid]",A (a TECC value less than 12 is marked “A”),A (an ΔTagg value less than or equal to 5 °C is marked “A”)
